Laboratory results published in patent US11945822B2, “Pyrazolo-triazine and/or pyrazolo-pxrimidine derivatives as selective inhibitor of cyclin dependent kinase” (QURIENT CO., LTD., priority 2018, dated 2024).

target: T1, CDK1/Cyclin B (Homo sapiens, UniProt P06493); assay: Enzymatic assay for CDK1 (FRET based LANCE Ultra kinase assay); assay type: biochemical; conditions: read-out: CDK1 enzymatic activity (IC50 range)
T1 construct: purchased Invitrogen PR4768C
How it was run: (§1)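 LANCE Ultra TR-FRET: ULight-MBP peptide (68 nM) with ATP at Km, […], 60 min at 23° C. EDTA plus Eu-anti-phospho-MBP added, another 60 min, then 665/615 nm emission read. Compounds tested as 8-dose 4-fold DMSO dilutions.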

T1 sequence (P06493 whole entry): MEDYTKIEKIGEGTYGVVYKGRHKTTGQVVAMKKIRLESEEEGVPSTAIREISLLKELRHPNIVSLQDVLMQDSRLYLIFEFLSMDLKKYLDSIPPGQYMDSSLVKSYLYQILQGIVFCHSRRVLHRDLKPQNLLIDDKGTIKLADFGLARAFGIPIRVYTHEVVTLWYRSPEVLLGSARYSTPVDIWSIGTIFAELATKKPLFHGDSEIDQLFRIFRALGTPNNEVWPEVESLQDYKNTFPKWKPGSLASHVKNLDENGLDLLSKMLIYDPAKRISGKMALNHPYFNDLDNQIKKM
T1 sequence (P14635 whole entry partner): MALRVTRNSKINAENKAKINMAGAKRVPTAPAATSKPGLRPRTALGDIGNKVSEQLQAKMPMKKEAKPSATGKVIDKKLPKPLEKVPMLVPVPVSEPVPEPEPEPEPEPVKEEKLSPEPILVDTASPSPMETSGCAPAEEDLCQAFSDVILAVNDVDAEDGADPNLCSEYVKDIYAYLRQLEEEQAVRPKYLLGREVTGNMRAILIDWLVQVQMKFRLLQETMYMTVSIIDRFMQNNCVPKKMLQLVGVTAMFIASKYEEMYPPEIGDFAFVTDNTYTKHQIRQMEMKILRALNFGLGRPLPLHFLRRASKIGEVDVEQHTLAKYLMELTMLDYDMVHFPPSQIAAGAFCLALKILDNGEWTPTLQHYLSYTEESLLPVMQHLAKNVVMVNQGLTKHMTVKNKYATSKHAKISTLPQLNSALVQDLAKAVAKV

| IC50 | Structure (SMILES) |
| --- | --- |
| > 1000 nM | CC(C)c1cnn2c(NCc3ccccc3-c3ccc4ccccc4n3)nc(OCC3CCNCC3)nc12 [Compound 215] |
| > 1000 nM | CC(C)c1cnn2c(NCc3ccccc3-c3ccc4ccccc4n3)nc(N3CCC(CN)CC3)nc12 [Compound 216] |
| > 1000 nM | CC(C)c1cnn2c(NCc3c(Cl)cccc3-n3ccc(C(C)(C)O)n3)nc(N3CCC(CN)CC3)nc12 [Compound 217] |
| > 1000 nM | CC(C)c1cnn2c(NCc3ccccc3-c3ccc4ccccc4n3)nc(OCC3CCNCC3O)nc12 (stereo not shown) [Compound 218] |

target: T2, CDK2/Cyclin A (Homo sapiens, UniProt P24941); assay: Enzymatic assay for CDK2 (FRET based LANCE Ultra kinase assay); assay type: biochemical; conditions: read-out: CDK2 enzymatic activity (IC50 range)
T2 construct: purchased Invitrogen PV6290
How it was run: as §1

| IC50 | Structure (SMILES) |
| --- | --- |
| > 1000 nM | CC(C)c1cnn2c(NCc3ccccc3-c3ccc4ccccc4n3)nc(OCC3CCNCC3)nc12 [Compound 215] |
| > 1000 nM | CC(C)c1cnn2c(NCc3ccccc3-c3ccc4ccccc4n3)nc(N3CCC(CN)CC3)nc12 [Compound 216] |
| > 1000 nM | CC(C)c1cnn2c(NCc3c(Cl)cccc3-n3ccc(C(C)(C)O)n3)nc(N3CCC(CN)CC3)nc12 [Compound 217] |
| > 1000 nM | CC(C)c1cnn2c(NCc3ccccc3-c3ccc4ccccc4n3)nc(OCC3CCNCC3O)nc12 (stereo not shown) [Compound 218] |

target: T3, CDK5/p25 (Homo sapiens, UniProt Q00535); assay: Enzymatic assay for CDK5 (FRET based LANCE Ultra kinase assay); assay type: biochemical; conditions: read-out: CDK5 enzymatic activity (IC50 range)
T3 construct: purchased Invitrogen PR8543B
How it was run: as §1

T3 sequence (Q00535 whole entry): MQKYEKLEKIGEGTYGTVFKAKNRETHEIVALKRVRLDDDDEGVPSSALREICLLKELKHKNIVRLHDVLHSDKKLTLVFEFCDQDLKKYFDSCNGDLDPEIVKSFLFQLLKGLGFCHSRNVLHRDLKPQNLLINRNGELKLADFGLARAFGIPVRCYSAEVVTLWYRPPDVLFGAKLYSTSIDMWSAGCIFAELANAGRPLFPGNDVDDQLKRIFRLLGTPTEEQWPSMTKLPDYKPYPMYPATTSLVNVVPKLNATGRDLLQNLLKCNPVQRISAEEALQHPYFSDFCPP
T3 sequence (Q15078 99-307 partner limits assumed): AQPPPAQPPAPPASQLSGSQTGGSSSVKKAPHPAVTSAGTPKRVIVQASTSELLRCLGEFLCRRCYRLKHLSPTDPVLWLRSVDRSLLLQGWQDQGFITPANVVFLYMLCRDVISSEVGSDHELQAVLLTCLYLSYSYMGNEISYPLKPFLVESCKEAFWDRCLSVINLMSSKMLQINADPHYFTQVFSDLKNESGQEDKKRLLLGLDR

| IC50 | Structure (SMILES) |
| --- | --- |
| > 1000 nM | CC(C)c1cnn2c(NCc3ccccc3-c3ccc4ccccc4n3)nc(OCC3CCNCC3)nc12 [Compound 215] |
| > 1000 nM | CC(C)c1cnn2c(NCc3ccccc3-c3ccc4ccccc4n3)nc(N3CCC(CN)CC3)nc12 [Compound 216] |
| > 1000 nM | CC(C)c1cnn2c(NCc3c(Cl)cccc3-n3ccc(C(C)(C)O)n3)nc(N3CCC(CN)CC3)nc12 [Compound 217] |
| > 1000 nM | CC(C)c1cnn2c(NCc3ccccc3-c3ccc4ccccc4n3)nc(OCC3CCNCC3O)nc12 (stereo not shown) [Compound 218] |

target: T4, CDK7/Cyclin H/MNAT1 (Homo sapiens, UniProt P50613); assay: Enzymatic assay for CDK7 (FRET based LANCE Ultra kinase assay); assay type: biochemical; conditions: CDK7 over CDK1
T4 construct: purchased Invitrogen PR6749B
How it was run: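 LANCE Ultra TR-FRET kinase assay using a ULight-labeled peptide substrate and a Eu-labeled anti-phospho antibody, with ATP at its Km. Purified CDK/cyclin complex was added to compound after brief centrifugation.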

T4 sequence (P50613 whole entry): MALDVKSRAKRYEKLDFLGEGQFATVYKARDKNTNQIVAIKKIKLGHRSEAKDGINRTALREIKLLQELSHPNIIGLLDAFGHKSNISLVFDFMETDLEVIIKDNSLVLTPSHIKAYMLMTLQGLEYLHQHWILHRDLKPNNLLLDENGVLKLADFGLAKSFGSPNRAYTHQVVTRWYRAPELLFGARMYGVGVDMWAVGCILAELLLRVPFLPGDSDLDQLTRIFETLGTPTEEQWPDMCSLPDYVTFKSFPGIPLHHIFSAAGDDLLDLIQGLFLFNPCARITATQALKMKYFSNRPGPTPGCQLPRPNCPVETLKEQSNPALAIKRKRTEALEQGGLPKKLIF
T4 sequence (P51946 whole entry partner): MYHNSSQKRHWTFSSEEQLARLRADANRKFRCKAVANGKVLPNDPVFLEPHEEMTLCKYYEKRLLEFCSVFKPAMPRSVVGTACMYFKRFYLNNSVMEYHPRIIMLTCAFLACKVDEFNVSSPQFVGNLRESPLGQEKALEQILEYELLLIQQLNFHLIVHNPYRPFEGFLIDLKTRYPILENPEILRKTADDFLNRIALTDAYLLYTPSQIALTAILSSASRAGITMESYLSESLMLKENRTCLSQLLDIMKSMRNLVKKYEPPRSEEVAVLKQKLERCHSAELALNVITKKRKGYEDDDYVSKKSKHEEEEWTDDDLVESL
T4 sequence (P51948 whole entry partner): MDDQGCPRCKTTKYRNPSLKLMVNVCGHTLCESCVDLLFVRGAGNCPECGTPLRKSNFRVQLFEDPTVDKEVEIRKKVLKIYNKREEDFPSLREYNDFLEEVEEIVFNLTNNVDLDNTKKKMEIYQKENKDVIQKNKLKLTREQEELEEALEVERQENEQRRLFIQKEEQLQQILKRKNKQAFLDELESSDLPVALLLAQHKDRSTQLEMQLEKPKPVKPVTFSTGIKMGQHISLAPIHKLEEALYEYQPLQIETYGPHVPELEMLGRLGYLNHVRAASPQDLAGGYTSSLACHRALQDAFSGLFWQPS

| CDK1/CDK7: Selectivity of CDK7 inhibition over CDK1 inhibition | Structure (SMILES) |
| --- | --- |
| A (A=greater than 200 fold) | CC(C)c1cnn2c(NCc3ccccc3-c3ccc4ccccc4n3)nc(OCC3CCNCC3)nc12 [Compound 215] |
| A (A=greater than 200 fold) | CC(C)c1cnn2c(NCc3ccccc3-c3ccc4ccccc4n3)nc(N3CCC(CN)CC3)nc12 [Compound 216] |
| A (A=greater than 200 fold) | CC(C)c1cnn2c(NCc3c(Cl)cccc3-n3ccc(C(C)(C)O)n3)nc(N3CCC(CN)CC3)nc12 [Compound 217] |
| A (A=greater than 200 fold) | CC(C)c1cnn2c(NCc3ccccc3-c3ccc4ccccc4n3)nc(OCC3CCNCC3O)nc12 (stereo not shown) [Compound 218] |

same assay, conditions: CDK7 over CDK2

| CDK2/CDK7: Selectivity of CDK7 inhibition over CDK2 inhibition | Structure (SMILES) |
| --- | --- |
| A (A=greater than 200 fold) | CC(C)c1cnn2c(NCc3ccccc3-c3ccc4ccccc4n3)nc(OCC3CCNCC3)nc12 [Compound 215] |
| A (A=greater than 200 fold) | CC(C)c1cnn2c(NCc3ccccc3-c3ccc4ccccc4n3)nc(N3CCC(CN)CC3)nc12 [Compound 216] |
| A (A=greater than 200 fold) | CC(C)c1cnn2c(NCc3c(Cl)cccc3-n3ccc(C(C)(C)O)n3)nc(N3CCC(CN)CC3)nc12 [Compound 217] |
| A (A=greater than 200 fold) | CC(C)c1cnn2c(NCc3ccccc3-c3ccc4ccccc4n3)nc(OCC3CCNCC3O)nc12 (stereo not shown) [Compound 218] |

same assay, conditions: CDK7 over CDK5

| CDK5/CDK7: Selectivity of CDK7 inhibition over CDK5 inhibition | Structure (SMILES) |
| --- | --- |
| A (A=greater than 200 fold) | CC(C)c1cnn2c(NCc3ccccc3-c3ccc4ccccc4n3)nc(OCC3CCNCC3)nc12 [Compound 215] |
| A (A=greater than 200 fold) | CC(C)c1cnn2c(NCc3ccccc3-c3ccc4ccccc4n3)nc(N3CCC(CN)CC3)nc12 [Compound 216] |
| A (A=greater than 200 fold) | CC(C)c1cnn2c(NCc3c(Cl)cccc3-n3ccc(C(C)(C)O)n3)nc(N3CCC(CN)CC3)nc12 [Compound 217] |
| A (A=greater than 200 fold) | CC(C)c1cnn2c(NCc3ccccc3-c3ccc4ccccc4n3)nc(OCC3CCNCC3O)nc12 (stereo not shown) [Compound 218] |

same assay, conditions: read-out: CDK7 enzymatic activity (IC50 range)

| IC50 | Structure (SMILES) |
| --- | --- |
| < 100 nM | CC(C)c1cnn2c(NCc3ccccc3-c3ccc4ccccc4n3)nc(OCC3CCNCC3)nc12 [Compound 215] |
| < 100 nM | CC(C)c1cnn2c(NCc3ccccc3-c3ccc4ccccc4n3)nc(N3CCC(CN)CC3)nc12 [Compound 216] |
| < 100 nM | CC(C)c1cnn2c(NCc3c(Cl)cccc3-n3ccc(C(C)(C)O)n3)nc(N3CCC(CN)CC3)nc12 [Compound 217] |
| < 100 nM | CC(C)c1cnn2c(NCc3ccccc3-c3ccc4ccccc4n3)nc(OCC3CCNCC3O)nc12 (stereo not shown) [Compound 218] |

test system: HCT116; assay: Cellular HCT116 viability assay (CellTiter-Glo, 72 hours); assay type: cell-based; conditions: Homo sapiens, HCT-116
How it was run: (§2)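 Cells were plated at line-specific densities and exposed to compound for 72 hours at 37 °C, 5% CO2, with DMSO-only wells as control (final DMSO below 0.1%). Viability was measured by CellTiter-Glo luminescence in duplicate.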

| IC50 | Structure (SMILES) |
| --- | --- |
| 1000 to 10000 nM | CC(C)c1cnn2c(NCc3ccccc3-c3ccc4ccccc4n3)nc(OCC3CCNCC3)nc12 [Compound 215] |
| < 1000 nM | CC(C)c1cnn2c(NCc3ccccc3-c3ccc4ccccc4n3)nc(N3CCC(CN)CC3)nc12 [Compound 216] |
| < 1000 nM | CC(C)c1cnn2c(NCc3c(Cl)cccc3-n3ccc(C(C)(C)O)n3)nc(N3CCC(CN)CC3)nc12 [Compound 217] |
| < 1000 nM | CC(C)c1cnn2c(NCc3ccccc3-c3ccc4ccccc4n3)nc(OCC3CCNCC3O)nc12 (stereo not shown) [Compound 218] |

test system: H460; assay: Cellular H460 viability assay (CellTiter-Glo, 72 hours); assay type: cell-based; conditions: Homo sapiens, NCI-H460
How it was run: as §2

| IC50 | Structure (SMILES) |
| --- | --- |
| < 1000 nM | CC(C)c1cnn2c(NCc3ccccc3-c3ccc4ccccc4n3)nc(OCC3CCNCC3)nc12 [Compound 215] |
| < 1000 nM | CC(C)c1cnn2c(NCc3ccccc3-c3ccc4ccccc4n3)nc(N3CCC(CN)CC3)nc12 [Compound 216] |
| < 1000 nM | CC(C)c1cnn2c(NCc3c(Cl)cccc3-n3ccc(C(C)(C)O)n3)nc(N3CCC(CN)CC3)nc12 [Compound 217] |
| < 1000 nM | CC(C)c1cnn2c(NCc3ccccc3-c3ccc4ccccc4n3)nc(OCC3CCNCC3O)nc12 (stereo not shown) [Compound 218] |

test system: MV4-11; assay: Cellular MV4-11 viability assay (CellTiter-Glo, 72 hours); assay type: cell-based; conditions: Homo sapiens
How it was run: as §2

| IC50 | Structure (SMILES) |
| --- | --- |
| 1000 to 10000 nM | CC(C)c1cnn2c(NCc3ccccc3-c3ccc4ccccc4n3)nc(OCC3CCNCC3)nc12 [Compound 215] |
| < 1000 nM | CC(C)c1cnn2c(NCc3ccccc3-c3ccc4ccccc4n3)nc(N3CCC(CN)CC3)nc12 [Compound 216] |
| < 1000 nM | CC(C)c1cnn2c(NCc3c(Cl)cccc3-n3ccc(C(C)(C)O)n3)nc(N3CCC(CN)CC3)nc12 [Compound 217] |
| < 1000 nM | CC(C)c1cnn2c(NCc3ccccc3-c3ccc4ccccc4n3)nc(OCC3CCNCC3O)nc12 (stereo not shown) [Compound 218] |
